The test system of this assay is binding between RBD and hACE2. Conditions: in vivo.

The structures appear in SMILES notation.

As to `CCCCCCCCCCC[C@H](CC(=O)N[C@@H](CO[C@@H]1O[C@H](CO[C@]2(C(=O)O)C[C@@H](O)[C@@H](O)[C@@H]([C@H](O)CO)O2)[C@@H](OP(=O)(O)O)[C@H](OC(=O)C[C@@H](CCCCCCCCCCC)OC(=O)CCCCCCCCC)[C@H]1NC(=O)C[C@@H](CCCCCCCCCCC)OC(=O)CCCCCCCCC)CC(=O)O)OC(=O)CCCCCCCCC` [Example 2(2e), Ammonium (3R)-3-{[(3R)-3-(decanoyloxy)tetradecanoyl]amino}-4-({3-O-[(3R)-3-(decanoyloxy)tetradecanoyl]-2-{[(3R)-3-(decanoyloxy)tetradecanoyl]amino}-2-deoxy-6-O-(3-deoxy-α-D-manno-oct-2-ulopyranonosyl)-4-O-phosphono-β-D-glucopyranosyl}oxy)butanoate], the “inhibition of binding between RBD and hACE2 by nasal wash” value is “inhibited the binding between RBD and hACE2”.

The values above are taken from patent publication US20240002425A1, “NOVEL AMINOALKYL GLUCOSAMINIDE 4-PHOSPHATE DERIVATIVE” (DAIICHI SANKYO COMPANY, LIMITED, priority 2020, published 2024).
